Tests used:
[1] = biological target: intestinal α-glucosidase (Rattus norvegicus, UniProt P23739); test: In vitro intestinal α-glucosidase inhibitory assay (sucrose substrate, glucose release); type: biochemical; conditions: for Inhibition Type: Lineweaver–Burk plots, inhibitor 50 µM (acarbose 5 µM); for Vmax: enzyme Vmax in presence of inhibitor 50 µM (acarbose 5 µM), control 14.1 ± 0.7
Protocol: The effect of the N. sativa seed extracts and fractions against intestinal α-glucosidase activity was quantified colorimetrically by monitoring the glucose release from sucrose degradation, according to the protocol described by Ouassou et al.. The assay mixtures contained 100 µL of sucrose (50 Mm), 1000 μL of phosphate- buffer (50 mM; pH = 7.5), and 100 μL of intestinal α-glucosidase enzyme solution (10 IU). […] Then, tubes were incubated at 37 °C in a water bath for 25 min. The mixture was heated at 100 °C for 5 min to stop the enzymatic reaction, and the release of glucose was estimated by the glucose oxidase method using a commercially available auto-kit. The absorbance was measured at 500 nm, and the inhibition percentage was calculated using the below formula:Inhibitory activity percentage = ((Acontrol 500 nm − ATest 500 nm)/Acontrol 500 nm) × 100(1)
The assays were conducted as described above. […] The experiments were repeated three times.

[2] = biological target: T1, pancreatic α-amylase (Sus scrofa, UniProt P00690); test: In vitro pancreatic α-amylase inhibitory assay (starch substrate, DNSA); conditions: for Inhibition Type: Lineweaver–Burk plots, inhibitor 50 µM (acarbose 5 µM); for Vmax: enzyme Vmax in presence of inhibitor 50 µM (acarbose 5 µM), control 29.6 ± 0.8
T1 sequence (P00690 16-511): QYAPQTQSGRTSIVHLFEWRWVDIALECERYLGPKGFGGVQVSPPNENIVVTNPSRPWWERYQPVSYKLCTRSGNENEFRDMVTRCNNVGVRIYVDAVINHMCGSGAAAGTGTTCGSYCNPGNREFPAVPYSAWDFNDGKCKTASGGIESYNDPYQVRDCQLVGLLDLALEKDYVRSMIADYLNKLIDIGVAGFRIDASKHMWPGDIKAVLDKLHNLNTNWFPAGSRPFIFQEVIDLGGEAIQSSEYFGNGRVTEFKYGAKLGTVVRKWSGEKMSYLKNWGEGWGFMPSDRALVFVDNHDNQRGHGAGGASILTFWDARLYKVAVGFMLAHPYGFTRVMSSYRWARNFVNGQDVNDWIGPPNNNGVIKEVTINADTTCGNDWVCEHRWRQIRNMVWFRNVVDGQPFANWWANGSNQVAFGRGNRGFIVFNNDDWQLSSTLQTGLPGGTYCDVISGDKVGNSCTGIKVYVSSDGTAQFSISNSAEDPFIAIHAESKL
Protocol: The inhibition of pancreatic α-amylase activity by N. sativa seed extracts and fractions was studied according to the procedure described by Daoudi et al. [29]. […] The mixtures were pre-incubated at 37 °C for 10 min. Then, 200 μL of starch (1% (w/v)) dissolved in phosphate buffer was added to each tube and were incubated for 20 min at 37 °C. To stop the enzymatic reaction 600 μL of DNSA color reagent was added. Hereafter, the tubes were incubated for 8 min at 100 °C, before being put in an ice-cold-water bath for a few minutes. The mixture was diluted by adding 1 mL of distilled water and the absorbance was measured at 540 nm. Inhibition percentage was calculated using the formula bellows:Inhibitory activity percentage= ((AControl 540 nm − ATest 540 nm)/AControl 540 nm) × 100(2)
Lineweaver–Burk double reciprocal representation (plotting 1/velocity vs 1/substrate concentration) was used to assess inhibition mode, and kinetic parameters Km and Vmax were determined using the Michaelis-Menten equation.
Secondary plots were used to establish the inhibition constants Ki (slope of the Lineweaver–Burk double reciprocal representation vs inhibitor concentration and intercept of the Lineweaver–Burk double reciprocal representation vs inhibitor concentration).

[3] = extraction solvent; source not given; cited from earlier work

Sequence of intestinal α-glucosidase (P23739 whole entry): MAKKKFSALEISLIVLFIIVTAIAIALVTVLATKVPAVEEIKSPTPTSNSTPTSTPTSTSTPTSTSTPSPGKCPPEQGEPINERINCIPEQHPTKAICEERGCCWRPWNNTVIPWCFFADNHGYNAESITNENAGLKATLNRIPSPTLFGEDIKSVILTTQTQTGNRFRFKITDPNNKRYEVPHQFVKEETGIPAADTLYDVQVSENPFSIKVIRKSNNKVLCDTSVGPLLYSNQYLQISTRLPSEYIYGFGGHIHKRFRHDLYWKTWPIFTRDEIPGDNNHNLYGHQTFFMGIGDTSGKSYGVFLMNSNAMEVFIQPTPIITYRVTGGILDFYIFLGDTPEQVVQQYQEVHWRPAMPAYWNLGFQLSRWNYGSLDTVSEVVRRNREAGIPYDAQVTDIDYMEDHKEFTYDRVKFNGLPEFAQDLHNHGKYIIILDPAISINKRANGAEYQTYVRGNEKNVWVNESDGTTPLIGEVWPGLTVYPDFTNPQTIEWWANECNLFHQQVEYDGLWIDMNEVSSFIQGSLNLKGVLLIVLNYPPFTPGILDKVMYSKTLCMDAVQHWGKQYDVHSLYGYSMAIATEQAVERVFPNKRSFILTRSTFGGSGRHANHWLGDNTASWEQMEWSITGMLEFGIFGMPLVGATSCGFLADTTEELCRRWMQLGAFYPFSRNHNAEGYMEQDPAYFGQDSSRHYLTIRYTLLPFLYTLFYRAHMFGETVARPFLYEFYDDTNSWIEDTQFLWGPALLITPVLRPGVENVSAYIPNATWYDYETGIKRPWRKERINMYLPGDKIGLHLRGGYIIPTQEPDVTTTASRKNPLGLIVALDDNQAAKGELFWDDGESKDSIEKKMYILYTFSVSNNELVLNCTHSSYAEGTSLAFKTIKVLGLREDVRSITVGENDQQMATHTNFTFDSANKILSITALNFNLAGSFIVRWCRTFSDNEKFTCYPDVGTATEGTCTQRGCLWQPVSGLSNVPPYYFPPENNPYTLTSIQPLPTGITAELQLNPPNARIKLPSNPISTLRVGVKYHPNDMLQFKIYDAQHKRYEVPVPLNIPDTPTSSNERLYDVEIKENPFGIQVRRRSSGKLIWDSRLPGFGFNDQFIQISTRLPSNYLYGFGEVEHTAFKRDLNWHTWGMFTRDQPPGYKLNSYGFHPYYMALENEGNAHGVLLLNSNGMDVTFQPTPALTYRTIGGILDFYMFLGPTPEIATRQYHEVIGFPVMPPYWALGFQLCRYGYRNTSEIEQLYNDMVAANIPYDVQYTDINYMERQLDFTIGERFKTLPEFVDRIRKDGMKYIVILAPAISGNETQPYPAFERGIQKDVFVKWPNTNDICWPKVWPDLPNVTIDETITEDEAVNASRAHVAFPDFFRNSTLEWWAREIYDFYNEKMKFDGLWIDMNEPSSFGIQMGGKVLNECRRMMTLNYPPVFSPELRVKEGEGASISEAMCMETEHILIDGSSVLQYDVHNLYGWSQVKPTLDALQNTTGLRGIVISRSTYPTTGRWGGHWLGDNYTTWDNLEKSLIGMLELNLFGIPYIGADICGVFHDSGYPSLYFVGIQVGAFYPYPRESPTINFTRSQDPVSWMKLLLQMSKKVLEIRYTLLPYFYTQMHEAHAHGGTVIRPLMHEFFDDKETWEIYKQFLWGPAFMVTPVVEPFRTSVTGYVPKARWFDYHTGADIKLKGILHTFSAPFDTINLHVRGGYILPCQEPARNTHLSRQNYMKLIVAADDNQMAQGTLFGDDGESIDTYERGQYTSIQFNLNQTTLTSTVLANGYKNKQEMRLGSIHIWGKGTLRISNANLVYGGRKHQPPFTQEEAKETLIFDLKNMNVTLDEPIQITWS

SMILES	Inhibition Type [1]	Vmax [1]	Inhibition Type [2]	Vmax [2]	other results
Oc1cc(O)c2c(c1)O[C@@H](c1ccc(O)c(O)c1)[C@H](O)C2 [(−)-Catechin, (−)-catechin]	Noncompetitive	13.1 ± 0.9 µM/min	–	–	fractional inhibition concentration (FIC) ([1]; mixed with acarbose, FIC = IC50 in combination with acarbose/IC50 alone, synergistic effect): 0.16
C[C@H]1O[C@H](O[C@H]2[C@H](O)[C@@H](O)[C@@H](O[C@H]3[C@H](O)[C@@H](O)C(O)O[C@@H]3CO)O[C@@H]2CO)[C@H](O)[C@@H](O)[C@@H]1N[C@H]1C=C(CO)[C@@H](O)[C@H](O)[C@H]1O (stereo partly shown) [Acarbose, acarbose, reference compound]	Competitive	23.9 ± 0.5 µM/min	Competitive	53.8 ± 1.1 µM/min	inhibition at 50 µM ([1]; read-out: Inhibition of intestinal α-glucosidase activity): 89.2 ± 0.5%; Inhibition of pancreatic α-amylase activity ([2]; positive control at 5 µM (3.22 µg/mL)): 65.6 ± 4.1%
CC(C)=O [Acetone]	–	–	–	–	logP [3]: −0.16
O=c1cc(-c2ccc(O)cc2)oc2cc(O)cc(O)c12 [Apigenin, apigenin]	–	–	Competitive	90.1 ± 0.7 µM/min	fractional inhibition concentration (FIC) ([2]; combined with acarbose, possible additive effect): 0.74
O=C(O)c1cc(O)c(O)c(O)c1 [Gallic acid, gallic acid]	Noncompetitive	14.7 ± 1.2 µM/min	Competitive	76.9 ± 1.4 µM/min	IC50 [2]: 27.8 ± 2.06 µM
CC1=CC(=O)C(C(C)C)=CC1=O [thymoquinone]	–	–	–	–	inhibition of intestinal α-glucosidase (in words) ([1]; under the evaluated concentration range (50 µM in kinetics), data not shown): not active
